{"source": "patent US10307357B2", "about": "“Prebiotic oral care compositions containing an alkyl glycoside” (COLGATE-PALMOLIVE COMPANY, priority 2013, dated 2019)", "assay_type_in_all_cases": "cell-based", "key": {"Streptococcus mutans": {"system": "Streptococcus mutans", "assay": "Twenty-four hour biofilm growth (crystal violet)", "conditions": "24 hours, control = 1", "protocol": "(§1) The increase in biofilm formation of the tested bacteria in response to selected glycosides (β-methyl-D-galactoside and α-methyl-D-galactoside) was investigated by setting up biofilm growth assays in a nutritionally rich medium (brain heart infusion broth (BHI), Oxoid), over 24 hours. Late exponential growth phase liquid cultures were prepared by transferring the respective bacterium from blood agar plates to BHI and overnight incubation at 37° C. in an anaerobic atmosphere for A. viscosus, V. parvula, P. gingivalis, P. intermedia, T. forsythia, A. naeslundii, and C. sputigena, and in a 5% CO2 environment for S. salivarius, S. sanguinis, S. mitis, A. actinomycetemcomitans, S. mutans, and S. gordonii. Overnight cultures were transferred to BHI and adjusted to a concentration of 1×10^7 CFU/ml by measuring the optical density at 600 nm (OD600) (BioRad SmartSpec 3000). For each strain, 200 μl of the bacterial suspension was added to a 96-well plate containing 20 μl of the respective glycosides. Final concentrations of the glycosides were set to 5, 10, 20 and 25 μmol/ml. […] Additionally, for each bacterium tested, a background control, to correct for background staining, was added. This background control contained the bacterium tested and 0.03 weight % chlorhexidine, as an antiseptic. Plates were incubated as previously described. After 24 hrs the supernatant was removed from the wells of the plates. The wells were washed twice with 1×100 μL PBS (phosphate buffered saline), fixed for 20 minutes with 96% vol. ethanol (96% vol. solution in water) and the biofilm retained at the bottom of the wells was stained with 1 weight % crystal violet (1 weight % solution in water). The bound dye was dissolved with 5% vol. acetic acid (5% vol. solution in water). Quantification of the stained biofilm was performed by measuring the absorbance at 630 nm using a Multiskan Ascent microplate reader (Thermo Scientific). […] The experiment was carried out on three different days (thus providing 3 biological replicas) and each day the experiment was carried out in quadruple (thus providing 4 technical replicas) for each combination of bacterium with glycoside and for each control. For each day and for each combination, the average (mean) of the values obtained (as detailed above) for the four technical replicas was calculated to provide a single value for each combination on each day. The values shown in Tables 7 to 8, below, are the average (mean) of the three single values obtained for each combination of bacterium with glycoside."}, "Actinomyces naeslundii [1]": {"system": "Actinomyces naeslundii", "assay": "Twenty-four hour biofilm growth (crystal violet)", "conditions": "24 hours, control = 1", "protocol": "as §1"}, "[2]": {"system": "Aggregatibacter actinomycetemcomitans", "assay": "Twenty-four hour biofilm growth (crystal violet)", "conditions": "24 hours, control = 1", "protocol": "as §1"}, "Streptococcus salivarius": {"system": "Streptococcus salivarius", "assay": "Twenty-four hour biofilm growth (crystal violet)", "conditions": "24 hours, control = 1", "protocol": "as §1"}, "Actinomyces viscosus": {"system": "Actinomyces viscosus", "assay": "Twenty-four hour biofilm growth (crystal violet)", "conditions": "24 hours, control = 1", "protocol": "as §1"}, "Prevotella intermedia": {"system": "Prevotella intermedia", "assay": "Twenty-four hour biofilm growth (crystal violet)", "conditions": "24 hours, control = 1", "protocol": "as §1"}, "Streptococcus gordonii": {"system": "Streptococcus gordonii", "assay": "Twenty-four hour optical density growth in BHI", "conditions": "over 24 hours, control = 1", "protocol": "(§2) The extent of growth of the tested bacteria in response to selected glycosides (β-methyl-D-galactoside and α-methyl-D-galactoside) was investigated by setting up growth curves in a nutritionally rich medium (brain heart infusion broth (BHI), Oxoid), over 24 hours. Late exponential growth phase liquid cultures were prepared by transferring the respective bacterium from blood agar plates to BHI and overnight incubation at 37° C. in an anaerobic atmosphere for A. viscosus, V. parvula, F. nucleatum, P. gingivalis, P. intermedia, T. forsythia, A. naeslundii, and C. sputigena, and in a 5% CO2 environment for S. salivarius, S. sanguinis, S. mitis, A. actinomycetemcomitans, S. mutans, S. sobrinus and S. gordonii. Overnight cultures were transferred to BHI and adjusted to a concentration of 1×10^7 CFU/ml (colony forming units per ml) by measuring the optical density at 600 nm (OD600) (BioRad SmartSpec 3000). For each strain, 200 μl of the bacterial suspension was added to a 96-well plate containing 20 μl of the respective glycosides. Final concentrations of the glycosides were set to 5, 10, 20 and 25 μmol/ml. […] Plates were incubated as previously described. For each combination of bacterium/glycoside, and for each of their respective controls (i.e. the particular bacterium in the nutritionally rich medium with no glycoside), the optical density was measured at 630 nm (OD630) at 0 h and 24 h (Thermo Scientific Multiskan Ascent). Additionally, the OD630 for combinations of bacterium/glycosides grown in a 5% CO2 environment were also measured every hour between 0 h and 9 h. […] The experiment was carried out on three different days (thus providing 3 biological replicas) and on each day the experiment was carried out in quadruple (thus providing 4 technical replicas) for each combination of bacterium with glycoside and for each control. For each day and for each combination, the average (mean) of the values obtained (as detailed above) for the four technical replicas was calculated to provide a single value for each combination on each day. The values shown in Tables 5 to 6, below, are the average (mean) of the three single values obtained for each combination of bacterium with glycoside (α-Methyl-D-Galactoside=α-MDG; β-Methyl-D-Galactoside=β-MDG)."}, "Capnocytophaga sputigena": {"system": "Capnocytophaga sputigena", "assay": "Twenty-four hour optical density growth in BHI", "conditions": "over 24 hours, control = 1", "protocol": "as §2"}, "Actinomyces naeslundii [3]": {"system": "Actinomyces naeslundii", "assay": "Twenty-four hour optical density growth in BHI", "conditions": "over 24 hours, control = 1", "protocol": "as §2"}, "[4]": {"system": "Aggregatibacter actinomycetemcomitans", "assay": "Twenty-four hour optical density growth in BHI", "conditions": "over 24 hours, control = 1", "protocol": "as §2"}, "Fusobacterium nucleatum": {"system": "Fusobacterium nucleatum", "assay": "Twenty-four hour optical density growth in BHI", "conditions": "over 24 hours, control = 1", "protocol": "as §2"}, "Streptococcus sobrinus": {"system": "Streptococcus sobrinus", "assay": "Twenty-four hour optical density growth in BHI", "conditions": "over 24 hours, control = 1", "protocol": "as §2"}}, "data": [{"molecule": "CO[C@@H]1O[C@H](CO)[C@H](O)[C@H](O)[C@H]1O", "note": "[β-methyl-D-galactoside]", "values": [{"measurement": "biofilm OD 630 nm divided by control (biofilm growth)", "setting": "Streptococcus mutans; 5 μmol/ml", "result": 1.3512}, {"measurement": "biofilm OD 630 nm divided by control (biofilm growth)", "setting": "Streptococcus mutans; 10 μmol/ml", "result": 1.0007}, {"measurement": "biofilm OD 630 nm divided by control (biofilm growth)", "setting": "Streptococcus mutans; 20 μmol/ml", "result": 1.1097}, {"measurement": "biofilm OD 630 nm divided by control (biofilm growth)", "setting": "Streptococcus mutans; 25 μmol/ml", "result": 1.2791}, {"measurement": "biofilm OD 630 nm divided by control (biofilm growth)", "setting": "Actinomyces naeslundii [1]; 5 μmol/ml", "result": 0.9907}, {"measurement": "biofilm OD 630 nm divided by control (biofilm growth)", "setting": "Actinomyces naeslundii [1]; 10 μmol/ml", "result": 0.9316}, {"measurement": "biofilm OD 630 nm divided by control (biofilm growth)", "setting": "Actinomyces naeslundii [1]; 20 μmol/ml", "result": 0.9697}, {"measurement": "biofilm OD 630 nm divided by control (biofilm growth)", "setting": "Actinomyces naeslundii [1]; 25 μmol/ml", "result": 0.9727}, {"measurement": "biofilm OD 630 nm divided by control (biofilm growth)", "setting": "[2]; 5 μmol/ml", "result": 1.1108}, {"measurement": "biofilm OD 630 nm divided by control (biofilm growth)", "setting": "[2]; 10 μmol/ml", "result": 1.0188}, {"measurement": "biofilm OD 630 nm divided by control (biofilm growth)", "setting": "[2]; 20 μmol/ml", "result": 1.0927}, {"measurement": "biofilm OD 630 nm divided by control (biofilm growth)", "setting": "[2]; 25 μmol/ml", "result": 1.0212}, {"measurement": "biofilm OD 630 nm divided by control (biofilm growth)", "setting": "Streptococcus salivarius; 5 μmol/ml", "result": 3.1530}, {"measurement": "biofilm OD 630 nm divided by control (biofilm growth)", "setting": "Streptococcus salivarius; 10 μmol/ml", "result": 5.6484}, {"measurement": "biofilm OD 630 nm divided by control (biofilm growth)", "setting": "Streptococcus salivarius; 20 μmol/ml", "result": 18.9267}, {"measurement": "biofilm OD 630 nm divided by control (biofilm growth)", "setting": "Streptococcus salivarius; 25 μmol/ml", "result": 20.1333}, {"measurement": "biofilm OD 630 nm divided by control (biofilm growth)", "setting": "Actinomyces viscosus; 5 μmol/ml", "result": 0.5917}, {"measurement": "biofilm OD 630 nm divided by control (biofilm growth)", "setting": "Actinomyces viscosus; 10 μmol/ml", "result": 0.5767}, {"measurement": "biofilm OD 630 nm divided by control (biofilm growth)", "setting": "Actinomyces viscosus; 20 μmol/ml", "result": 0.6104}, {"measurement": "biofilm OD 630 nm divided by control (biofilm growth)", "setting": "Actinomyces viscosus; 25 μmol/ml", "result": 0.6322}, {"measurement": "biofilm OD 630 nm divided by control (biofilm growth)", "setting": "Prevotella intermedia; 5 μmol/ml", "result": 1.1201}, {"measurement": "biofilm OD 630 nm divided by control (biofilm growth)", "setting": "Prevotella intermedia; 10 μmol/ml", "result": 1.0925}, {"measurement": "biofilm OD 630 nm divided by control (biofilm growth)", "setting": "Prevotella intermedia; 20 μmol/ml", "result": 1.1229}, {"measurement": "biofilm OD 630 nm divided by control (biofilm growth)", "setting": "Prevotella intermedia; 25 μmol/ml", "result": 1.1007}, {"measurement": "maximal OD630 divided by control (extent of growth)", "setting": "Streptococcus gordonii; 5 μmol/ml", "result": 0.9811}, {"measurement": "maximal OD630 divided by control (extent of growth)", "setting": "Streptococcus gordonii; 10 μmol/ml", "result": 0.9760}, {"measurement": "maximal OD630 divided by control (extent of growth)", "setting": "Streptococcus gordonii; 20 μmol/ml", "result": 0.9954}, {"measurement": "maximal OD630 divided by control (extent of growth)", "setting": "Streptococcus gordonii; 25 μmol/ml", "result": 1.0054}, {"measurement": "maximal OD630 divided by control (extent of growth)", "setting": "Capnocytophaga sputigena; 5 μmol/ml", "result": 0.8841}, {"measurement": "maximal OD630 divided by control (extent of growth)", "setting": "Capnocytophaga sputigena; 10 μmol/ml", "result": 0.8633}, {"measurement": "maximal OD630 divided by control (extent of growth)", "setting": "Capnocytophaga sputigena; 20 μmol/ml", "result": 0.8645}, {"measurement": "maximal OD630 divided by control (extent of growth)", "setting": "Capnocytophaga sputigena; 25 μmol/ml", "result": 0.8575}, {"measurement": "maximal OD630 divided by control (extent of growth)", "setting": "Actinomyces naeslundii [3]; 5 μmol/ml", "result": 0.9746}, {"measurement": "maximal OD630 divided by control (extent of growth)", "setting": "Actinomyces naeslundii [3]; 10 μmol/ml", "result": 0.9516}, {"measurement": "maximal OD630 divided by control (extent of growth)", "setting": "Actinomyces naeslundii [3]; 20 μmol/ml", "result": 0.9705}, {"measurement": "maximal OD630 divided by control (extent of growth)", "setting": "Actinomyces naeslundii [3]; 25 μmol/ml", "result": 0.9802}, {"measurement": "maximal OD630 divided by control (extent of growth)", "setting": "[4]; 5 μmol/ml", "result": 0.7099}, {"measurement": "maximal OD630 divided by control (extent of growth)", "setting": "[4]; 10 μmol/ml", "result": 0.7723}, {"measurement": "maximal OD630 divided by control (extent of growth)", "setting": "[4]; 20 μmol/ml", "result": 0.7373}, {"measurement": "maximal OD630 divided by control (extent of growth)", "setting": "[4]; 25 μmol/ml", "result": 0.7472}, {"measurement": "maximal OD630 divided by control (extent of growth)", "setting": "Fusobacterium nucleatum; 5 μmol/ml", "result": 0.8134}, {"measurement": "maximal OD630 divided by control (extent of growth)", "setting": "Fusobacterium nucleatum; 10 μmol/ml", "result": 0.8181}, {"measurement": "maximal OD630 divided by control (extent of growth)", "setting": "Fusobacterium nucleatum; 20 μmol/ml", "result": 0.8161}, {"measurement": "maximal OD630 divided by control (extent of growth)", "setting": "Fusobacterium nucleatum; 25 μmol/ml", "result": 0.8213}, {"measurement": "maximal OD630 divided by control (extent of growth)", "setting": "Streptococcus sobrinus; 5 μmol/ml", "result": 0.8914}, {"measurement": "maximal OD630 divided by control (extent of growth)", "setting": "Streptococcus sobrinus; 10 μmol/ml", "result": 0.8818}, {"measurement": "maximal OD630 divided by control (extent of growth)", "setting": "Streptococcus sobrinus; 20 μmol/ml", "result": 0.9110}, {"measurement": "maximal OD630 divided by control (extent of growth)", "setting": "Streptococcus sobrinus; 25 μmol/ml", "result": 0.9111}]}]}
